Assays:
[1] = test system: human IgE; experiment: Treatment experiment, dogs artificially sensitized with Dermatophagoides farinae: IgG antibody against human IgE (ELISA); assay type: in vivo; conditions: beagles artificially sensitized with Dermatophagoides farinae, s.c. 1 mg five times
Procedure: Human IgE (Athens Research And Technology, Inc.; IgE, human Myeloma Plasma) was prepared at 1 μg/mL in an immobilization buffer (0.05 M carbonate buffer, pH 9.6), then added at a concentration of 100 μL/well to an ELISA plate, and left overnight at 4° C. The immobilization plate was washed once with PBS-T (0.05%). A blocking solution (4× Block Ace, Snow Brand Milk Products Co., Ltd.; UK-B80) was added thereto at a concentration of 200 μL/well. The plate was blocked by incubation at 37° C. for 1.5 hours. The serum was diluted 1000-fold with a diluent (PBS-T:Block Ace=9:1) and used. The plate was reacted with the serum at 37° C. for 1.5 hours and washed three times with PBS-T (0.05%). An anti-dog IgG antibody (Sheep anti-Dog IgG HRP, Bethyl Laboratories, Inc.; A40-118P) was diluted 2000-fold with a diluent and added thereto as a secondary antibody at a concentration of 100 μL/well. After reaction at 37° C. for 1.5 hours, the plate was washed three times with PBS-T (0.05%). […] Then, the measurement was performed using a plate reader (Bio-Rad Laboratories, Inc.; model 680) (dual: measurement: 450 nm, control: 570 nm). […]
Evaluation: serum was collected, and an IgG antibody against human IgE was assayed by ELISA. […] The IgE antibody against Dermatophagoides farinae was evaluated by ELISA. […]

[2] = test system: Dog subjected to P-K test; experiment: Prausnitz-Kustner (P-K) test; assay type: in vivo; conditions: conclusion of P-K test
Procedure: The P-K test refers to a method for qualitatively evaluating antigen-specific IgE in test serum and employs additional antigen-unsensitized individuals. The test is summarized as follows:
1) Antigen-unsensitized animals are prepared as animals subjected to the P-K test.
2) Test serum or serum of a healthy animal (control) is intracutaneously administered to the animals subjected to the P-K test. When antigen-specific IgE is present in the test serum, the IgE binds to the surface of mast cells in the skins of the animals subjected to the P-K test within 48 hours after the administration.
3) 48 hours after the serum administration, an antigen solution is intracutaneously administered to the same sites as above. When antigen-specific IgE is present in the test serum, the antigen binds to the antigen-specific IgE bound with the surface of mast cells to form IgE cross-linking. This triggers the degranulation of the mast cells, resulting in flare confirmed in the skins.
The administration group and the non-administration group differed most largely in their serum Der f 2-specific IgE concentrations at day 77 (7 days after the second sensitization) when the effects of the test substance were thus confirmed to be maximized. […]

Row | Sequence | level of the IgG antibody against IgE [1] | effect of vaccine-induced IgG on binding of IgE to mast cells [2]
1 | KKTSVSASQWYTKHHNNATT (listed as Mus musculus) [M4-7-11] | confirmed to elevate | 
2 | QEKKTSVSASQWYTKHHNNATTSIT (listed as Mus musculus) [MOUSE CH3-4-17-11] |  | blocks the binding of the IgE to mast cells
